Results from patent publication US8367873B2, “Phenyl-substituted bicyclooctane-1,3-dione derivatives” (Bayer Cropscience AG, priority 2008, dated 2013).

What was measured:
Assay type in all cases: in vivo
Setaria viridis [1] = assay: Herbicidal pre-emergence action; settings: pre-emergence method, 80 g/ha, greenhouse, visual assessment vs untreated controls
Method in brief: (§1)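 Visual percent effect relative to untreated controls (0% = like control, 100% = dead) assessed three weeks after treatment in the greenhouse. Compounds, as wettable powders in water (600 l/ha, 0.2% wetting agent), were sprayed at different amounts onto covering soil over seeds sown in sandy loam.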

Echinocloa crus-galli [2] = assay: Herbicidal pre-emergence action; settings: pre-emergence method, 80 g/ha, greenhouse, visual assessment vs untreated controls
Method in brief: as §1

Alopecurus myosuroides [3] = assay: Herbicidal pre-emergence action; settings: pre-emergence method, 80 g/ha, greenhouse, visual assessment vs untreated controls
Method in brief: as §1

Lolium multiflorum [4] = assay: Herbicidal pre-emergence action; settings: pre-emergence method, 80 g/ha, greenhouse, visual assessment vs untreated controls
Method in brief: as §1

Setaria viridis [5] = assay: Herbicidal post-emergence action; settings: post-emergence method; for herbicidal effect against SETVI (Setaria viridis): 80 g/ha
Method in brief: (§2)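 Post-emergence spray test: wettable-powder formulations are applied at different amounts to one-leaf-stage plants in 600 l/ha water containing 0.2% wetting agent. After roughly three weeks in the greenhouse, percent effect is rated visually relative to untreated controls.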

Echinocloa crus-galli [6] = assay: Herbicidal post-emergence action; settings: post-emergence method; for herbicidal effect against ECHCG (Echinochloa crus-galli): 80 g/ha
Method in brief: as §2

Alopecurus myosuroides [7] = assay: Herbicidal post-emergence action; settings: post-emergence method; for herbicidal effect against ALOMY (Alopecurus myosuroides): 80 g/ha
Method in brief: as §2

Lolium multiflorum [8] = assay: Herbicidal post-emergence action; settings: post-emergence method; for herbicidal effect against LOLMU (Lolium multiflorum): 80 g/ha
Method in brief: as §2

[9] = tested on: monocotylidonous and dicotylidonous weed and crop plants; assay: Herbicidal pre-emergence action (other test plants); settings: pre-emergence method, 80 g/ha, greenhouse, visual assessment vs untreated controls
Method in brief: as §1

[10] = tested on: monocotylidonous and dicotylidonous weed and crop plants; assay: Herbicidal post-emergence action (other test plants); settings: post-emergence method; for herbicidal effect against AVEFA (Avena fatua): 80 g/ha
Method in brief: as §2

cereals = assay: Container trials with cereals in the greenhouse, use of safeners (Mefenpyr 1 day prior to herbicide application)
Procedure: Seeds of monocotylidonous and dicotylidonous weed and crop plants are placed in sandy loam in wood fibre pots, covered with soil and cultivated in a greenhouse under good growth conditions. Two to three weeks after sowing, the test plants are treated at the one-leaf stage. The test compounds, formulated as wettable powders (WP), are then with a water application rate of 600 l/ha (converted), with 0.2% of wetting agent added, sprayed onto the green parts of the plants in different amounts. After the test plants have been kept in the greenhouse under optimum growth conditions for about three weeks, the effect of the preparations is assessed visually in comparison to untreated controls (herbicidal effect in percent: 100% effect=the plants have died, 0% effect=like control plants).
If it is to be additionally tested as to whether safeners can improve the plant compatibility of test substances in the case of crop plants, the following options are used for applying the safeners: • Seeds of the crop plants are, before sowing, dressed with safener substance (the amount of safener stated in percent, based on the weight of the seed) • Before the application of the test substances, the crop plants are sprayed with the safener at a certain application rate per hectare (usually one day before the application of the test substances) • The safener is applied together with the test substance as a tank mix (the amount of safener stated in g/ha or as a ratio, based on the herbicide).
Container Trials with Cereals in the Greenhouse

[11] = 28 days after application, 50 g of a.i./ha
[12] = 28 days after application, 100 g of a.i./ha
[13] = 28 days after application, 12.5 g of a.i./ha
[14] = 28 days after application, 25 g of a.i./ha

Compound | herbicidal effect SETVI (Setaria viridis [1]) [%] | herbicidal effect ECHCG (Echinocloa crus-galli [2]) [%] | herbicidal effect ALOMY (Alopecurus myosuroides [3]) [%] | herbicidal effect LOLMU (Lolium multiflorum [4]) [%] | herbicidal effect against SETVI (Setaria viridis) (Setaria viridis [5]) [%] | herbicidal effect against ECHCG (Echinochloa crus-galli) (Echinocloa crus-galli [6]) [%] | herbicidal effect against ALOMY (Alopecurus myosuroides) (Alopecurus myosuroides [7]) [%] | herbicidal effect against LOLMU (Lolium multiflorum) (Lolium multiflorum [8]) [%] | herbicidal effect AVEFA [9] [%] | herbicidal effect against AVEFA (Avena fatua) [10] [%] | Summer barley observed (%) (cereals; [11]) | Summer barley observed (%) (cereals; [12]) | Summer wheat observed (%) (cereals; [13]) | Summer wheat observed (%) (cereals; [14]) | Summer wheat observed (%) (cereals; [11]) | Summer wheat observed (%) (cereals; [12]) | Summer barley observed (%) (cereals; [14]) | further results
CCc1cc(C)cc(CC)c1C1=C(O)[C@H]2CC3(C[C@H]2C1=O)OCCCO3 (relative stereo) [I-a-11] | 70 | 100 | 90 | 100 | 100 | 100 | 90 | 100 | 50 | 90 | 8 | 10 | 10 | 50 | 60 | 70 |  | Summer wheat observed (%) (cereals; 10 days after application, 12.5 g of a.i./ha): 30%; Summer wheat observed (%) (cereals; 10 days after application, 25 g of a.i./ha): 50%; Summer wheat observed (%) (cereals; 10 days after application, 50 g of a.i./ha): 70%
C=C1COC2(C[C@@H]3C(O)=C(c4c(CC)cc(C)cc4CC)C(=O)[C@@H]3C2)OC1 [I-a-3] | 100 | 100 | 100 | 100 |  |  |  |  | 80 |  | 60 | 70 | 10 | 60 | 70 | 85 | 20 | pest or weed control at 80 g/ha (Setaria viridis [5]; Setaria viridis, 504 h, read-out: herbicidal effect against SETVI (Setaria viridis)): 100%; pest or weed control at 80 g/ha (Echinocloa crus-galli [6]; Echinochloa crus-galli, 504 h, read-out: herbicidal effect against ECHCG (Echinochloa crus-galli)): 100%; pest or weed control at 80 g/ha (Alopecurus myosuroides [7]; Alopecurus myosuroides, 504 h, read-out: herbicidal effect against ALOMY (Alopecurus myosuroides)): 90%; pest or weed control at 80 g/ha (Lolium multiflorum [8]; Lolium multiflorum, 504 h, read-out: herbicidal effect against LOLMU (Lolium multiflorum)): 100%; pest or weed control at 80 g/ha ([10]; 504 h, Avena fatua, read-out: herbicidal effect against AVEFA (Avena fatua)): 90%
CCOC(=O)OC1=C(c2c(CC)cc(C)cc2CC)C(=O)[C@@H]2CC3(C[C@H]12)OCCCO3 (relative stereo) [I-c-14] | 70 | 90 | 90 | 100 | 100 | 100 | 90 | 100 | 70 | 70 | 10 | 20 | 40 | 50 | 60 | 70 |  | 
CCc1cc(C)cc(CC)c1C1=C(OC(=O)OC(C)C)[C@H]2C[C@]3(COC(C)(C)O3)C[C@H]2C1=O (relative stereo) [I-c-3] | 70 | 40 | 100 | 100 | 80 | 90 | 90 | 100 | 80 | 80 | 30 | 95 | 10 | 20 | 60 | 99 | 15 | 
C=C1COC2(CC3C(=O)C(c4c(CC)cc(C)cc4CC)=C(OC(=O)C(C)C)C3C2)OC1 (stereo not shown) [I-b-13] | 100 | 100 | 100 | 100 | 100 | 100 | 100 | 100 | 80 | 100 | 20 | 50 | 20 | 40 | 80 | 85 |  | 
